Consider 34 compounds from patent US7504426B2, “Heterocyclic compounds” (Janssen Pharmaceutica N.V., priority 2003, dated 2009).

The target of this assay is human histamine H4 receptor (Homo sapiens, UniProt Q9H3N8). The assay can be described thus: biochemical.
Chain of human histamine H4 receptor (Q9H3N8 whole entry): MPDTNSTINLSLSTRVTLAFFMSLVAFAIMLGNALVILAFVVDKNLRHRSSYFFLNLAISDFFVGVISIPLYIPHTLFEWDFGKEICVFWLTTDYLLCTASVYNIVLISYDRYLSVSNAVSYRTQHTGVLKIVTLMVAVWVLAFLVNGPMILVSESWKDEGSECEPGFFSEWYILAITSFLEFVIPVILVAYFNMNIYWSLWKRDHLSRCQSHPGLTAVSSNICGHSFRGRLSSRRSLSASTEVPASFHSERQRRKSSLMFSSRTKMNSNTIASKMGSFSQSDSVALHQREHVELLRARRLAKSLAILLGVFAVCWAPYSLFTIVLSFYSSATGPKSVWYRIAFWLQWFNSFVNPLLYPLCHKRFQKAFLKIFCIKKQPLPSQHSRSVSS

For orientation: Ki means a measure of affinity in units of concentration, obtained from inhibition or displacement. Low readings indicate tighter binding, high ones weaker binding. As for `CN1CCN(C(=O)c2nc3ccccc3[nH]2)CC1` [Example 1, (1H-Benzoimidazol-2-yl)-(4-methyl-piperazin-1-yl)-methanone], the Ki came out at 32 nM.

`CCN1CCN(C(=O)c2nc3ccccc3[nH]2)CC1` [Example 2, (1H-Benzoimidazol-2-yl)-(4-ethyl-piperazin-1-yl)-methanone] displayed a Ki of 490 nM. Compared with the last compound, the Ki is about 15-fold higher.

In turn, `CC1CN(C(=O)c2nc3ccccc3[nH]2)CCN1` (stereo not shown) [Example 3, (1H-Benzoimidazol-2-yl)-(3-methyl-piperazin-1-yl)-methanone] returned an inhibitory constant (Ki) of 331 nM.

In the case of `CN1CCCN(C(=O)c2nc3ccccc3[nH]2)CC1` [Example 4, (1H-Benzoimidazol-2-yl)-(4-methyl-[1,4]diazepan-1-yl)-methanone], the inhibition constant (Ki) is 1400 nM. Compared with the last compound, the Ki is about 4.2-fold higher. `CN1C2CCC1CC(NC(=O)c1nc3ccccc3[nH]1)C2` (stereo not shown) [Example 5, 1H-Benzoimidazole-2-carboxylic acid (8-methyl-8-aza-bicyclo[3.2.1]oct-3-yl)-amide] gave a Ki of 89 nM. The value for `CC1CN(C(=O)c2nc3cc(Cl)ccc3[nH]2)CCN1` (stereo not shown) [Example 8, (5-Chloro-1H-benzoimidazol-2-yl)-(3-methyl-piperazin-1-yl)-methanone] was 300 nM; that for `CCN1CCN(C(=O)c2nc3cc(F)c(F)cc3[nH]2)CC1` [Example 10, (5,6-Difluoro-1H-benzoimidazol-2-yl)-(4-ethyl-piperazin-1-yl)-methanone] was 620 nM; that for `CC1CN(C(=O)c2nc3cc(F)c(F)cc3[nH]2)CCN1` (stereo not shown) [Example 11, (5,6-Difluoro-1H-benzoimidazol-2-yl)-(3-methyl-piperazin-1-yl)-methanone] was 355 nM.

Consider `CN1CCCN(C(=O)c2nc3cc(F)c(F)cc3[nH]2)CC1` [Example 12, (5,6-Difluoro-1H-benzoimidazol-2-yl)-(4-methyl-[1,4]diazepan-1-yl)-methanone], for which the Ki is 807 nM. The value for `CN1C2CCC1CC(NC(=O)c1nc3cc(F)c(F)cc3[nH]1)C2` (stereo not shown) [Example 13, 5,6-Difluoro-1H-benzoimidazole-2-carboxylic acid (8-methyl-8-aza-bicyclo[3.2.1]oct-3-yl)-amide] was 380 nM. The result for `CN1CCN(C(=O)c2nc3cc(F)c(Cl)cc3[nH]2)CC1` [Example 14, (6-Chloro-5-fluoro-1H-benzoimidazol-2-yl)-(4-methyl-piperazin-1-yl)-methanone] reads 53 nM.

In the case of `O=C(c1nc2cc(F)c(Cl)cc2[nH]1)N1CCNCC1` [Example 15, (6-Chloro-5-fluoro-1H-benzoimidazol-2-yl)-piperazin-1-yl-methanone], the affinity, expressed as Ki, was 216 nM. `CN1CCCN(C(=O)c2nc3cc(F)c(Cl)cc3[nH]2)CC1` [Example 16, (6-Chloro-5-fluoro-1H-benzoimidazol-2-yl)-(4-methyl-[1,4]diazepan-1-yl)-methanone] returned an inhibition constant (Ki) of 1300 nM.

As to `CN1C2CCC1CC(NC(=O)c1nc3cc(F)c(Cl)cc3[nH]1)C2` (stereo not shown) [Example 17, 6-Chloro-5-fluoro-1H-benzoimidazole-2-carboxylic acid (8-methyl-8-aza-bicyclo[3.2.1]oct-3-yl)-amide], the inhibition constant Ki came to 535 nM. Compared with the last compound, the Ki is about 2.4-fold lower. The compound `Cc1cc2nc(C(=O)N3CCN(C)CC3)[nH]c2cc1Cl` [Example 18, (5-Chloro-6-methyl-1H-benzoimidazol-2-yl)-(4-methyl-piperazin-1-yl)-methanone] returned an inhibition constant (Ki) of 226 nM.

Compound `Cc1cc2nc(C(=O)N3CCNCC3)[nH]c2cc1Cl` [Example 19, (5-Chloro-6-methyl-1H-benzoimidazol-2-yl)-piperazin-1-yl-methanone] came in with an inhibition constant (Ki) of 1000 nM. This Ki is about 4.4-fold higher than that of the compound before. The compound `Cc1cccc2[nH]c(C(=O)N3CCNC(C)C3)nc12` (stereo not shown) [Example 20, (4-Methyl-1H-benzoimidazol-2-yl)-(3-methyl-piperazin-1-yl)-methanone] showed an inhibitory constant (Ki) of 156 nM.

In the case of `CCN1CCN(C(=O)c2nc3c(C)cccc3[nH]2)CC1` [Example 21, (4-Ethyl-piperazin-1-yl)-(4-methyl-1H-benzoimidazol-2-yl)-methanone], the Ki is 468 nM.

For `Cc1cccc2[nH]c(C(=O)N3CCN(C)CC3)nc12` [Example 22, (4-Methyl-1H-benzoimidazol-2-yl)-(4-methyl-piperazin-1-yl)-methanone], the inhibition constant Ki amounted to 31 nM. The value for `Cc1cccc2[nH]c(C(=O)N3CCNCC3)nc12` [Example 23, (4-Methyl-1H-benzoimidazol-2-yl)-piperazin-1-yl-methanone] was 135 nM; that for `Cc1cccc2[nH]c(C(=O)N[C@H]3C[C@H]4CC[C@@H](C3)N4C)nc12` [Example 24, 4-Methyl-1H-benzoimidazole-2-carboxylic acid (8-methyl-8-aza-bicyclo[3.2.1]oct-3-yl)-amide] was 270 nM. The result for `Cc1ccc2[nH]c(C(=O)N3CCN(C)CC3)nc2c1` [Example 26, (5-Methyl-1H-benzoimidazol-2-yl)-(4-methyl-piperazin-1-yl)-methanone] reads 528 nM. The result for `CN1CCN(C(=O)c2nc3cc(C(F)(F)F)ccc3[nH]2)CC1` [Example 27, (4-Methyl-piperazin-1-yl)-(5-trifluoromethyl-1H-benzoimidazol-2-yl)-methanone] reads 11 nM. The compound `O=C(c1nc2cc(C(F)(F)F)ccc2[nH]1)N1CCNCC1` [Example 28, Piperazin-1-yl-(5-trifluoromethyl-1H-benzoimidazol-2-yl)-methanone] gave a Ki of 420 nM. The value for `CN1CCN(C(=O)c2nc3cc(F)ccc3[nH]2)CC1` [Example 29, (5-Fluoro-1H-benzoimidazol-2-yl)-(4-methyl-piperazin-1-yl)-methanone] was 26 nM; that for `CCN1CCN(C(=O)c2nc3cc(F)ccc3[nH]2)CC1` [Example 30, (4-Ethyl-piperazin-1-yl)-(5-fluoro-1H-benzoimidazol-2-yl)-methanone] was 370 nM. The result for `O=C(c1nc2cc(F)ccc2[nH]1)N1CCNCC1` [Example 31, (5-Fluoro-1H-benzoimidazol-2-yl)-piperazin-1-yl-methanone] reads 42 nM.

Consider `CC1CN(C(=O)c2nc3cc(F)ccc3[nH]2)CCN1` (stereo not shown) [Example 32, (5-Fluoro-1H-benzoimidazol-2-yl)-(3-methyl-piperazin-1-yl)-methanone], for which the affinity corresponds to a Ki of 460 nM. The value for `CN1CCN(C(=O)c2nc3cccnc3[nH]2)CC1` [Example 34, (3H-Imidazo[4,5-b]pyridin-2-yl)-(4-methyl-piperazin-1-yl)-methanone] was 833 nM; that for `CN1CCN(C(=O)c2nc3ccccc3o2)CC1` [Example 35, Benzooxazol-2-yl-(4-methyl-piperazin-1-yl)-methanone] was 620 nM; that for `Cc1cccc2nc(C(=O)N3CCN(C)CC3)oc12` [Example 36, (7-Methyl-benzooxazol-2-yl)-(4-methyl-piperazin-1-yl)-methanone] was 1200 nM.

`Cc1ccc2oc(C(=O)N3CCN(C)CC3)nc2c1` [Example 37, (5-Methyl-benzooxazol-2-yl)-(4-methyl-piperazin-1-yl)-methanone]: the affinity corresponds to a Ki of 1300 nM. This Ki and that of the compound before are within 1.5-fold of each other.

With `Cc1cccc2oc(C(=O)N3CCN(C)CC3)nc12` [Example 38, (4-Methyl-benzooxazol-2-yl)-(4-methyl-piperazin-1-yl)-methanone], the Ki worked out at 1600 nM. The value for `CN1CCN(C(=O)c2nc3ccccc3s2)CC1` [Example 39, Benzothiazol-2-yl-(4-methyl-piperazin-1-yl)-methanone] was 810 nM.
